Assay results published in patent publication US20040044077A1, “Agents for inhibiting or restoring skin damage caused by drying and method for evaluating the same” (priority 2000, published 2004).

Legend:
[1] = system: filaggrin gene; assay: Expression level of the filaggrin gene (RT-PCR) in cultured human keratinocytes exposed to a gaseous phase (drying); assay type: cell-based; conditions: drying stimulus; for Relative expression level of filaggrin gene (%) Mean: no treatment = 100
Protocol: (§1) Normal keratinocytes of human preputial origin and 3T3 cells of mouse origin were used.
(§2) The culture medium was DMEM-Ham's F12 (3:1) containing hydrocortisone, cholera enterotoxin, epidermal growth factor, insulin and 10% FBS.
(§3) The keratinocytes were cultured according to the method described in Rheinwald et al., Cell, 6, 331-344(1975).
(§4) An outline is given below. 3T3 cells were treated with mitomycin C and used as a feeder layer. Normal human keratinocytes (1×10^5 cells) were inoculated onto mitomycin C-treated 3T3 cells and cultured at 37° C. in a 95% air-5% carbon dioxide environment until they became confluent. They were exposed to a gaseous phase by removing the culture supernatant. Each test substance was added 30 minutes before exposed to a gaseous phase, followed by incubation at 37° C. The culture to which no test sample was added was used as a control. The exposure to a gaseous phase was carried out at 37° C. for 0-6 hours.
After each test substance was added to the aforesaid culture system and the cells were exposed to a gaseous phase for a predetermined period of time, RNA was extracted from the cells according to the AGPC method. This RNA was subjected to RT-PCR in the following manner. A primer specific for fillaggrin was prepared on the basis of the base sequence of filaggrin which is reported in McKinley-Grant L. J. et al., Proc. Natl. Acad. Sci. U.S.A., 86, 4848-4852(1989). In order to assay mRNA for filaggrin, RT-PCR was carried out by converting mRNA to cDNA with the aid of reverse transcriptase. Using this cDNA as a template with the aforesaid primer, a polymerase reaction (a well-known reaction) was carried out. After the PCR product was electrophoresed in agarose gel, the resulting gel was soaked in an ethidium bromide solution and assayed for DNA. The quantitative analysis of DNA bands was carried out with NIH Image (analytical program). A correction was made with the aid of glyceraldehyde-3-phosphate dehydrogenase (G3PDH).
(6-8) The efficacies of other active ingredients and combinations of active ingredients in inhibiting a reduction in the expression of the filaggrin gene in cultured human keratinocytes as induced by drying are shown in Tables 1 and 2 below, respectively. In these tables, the degree to which the addition of a drug inhibited a reduction in gene expression is expressed as a percentage, assuming that the gene expression before drying is 100% and the gene expression after drying is […]. In Table 1, each active ingredient was added at an extract concentration of 0.5%. In Table 2, compositions containing the indicated active ingredient(s) at the indicated concentration(s) (in % by weight) were tested.
The aforesaid recovery rates (%) indicate the degree to which the addition of each test substance restored the expression level of the filaggrin gene as compared with that in the untreated group not exposed to a drying stimulus.

[2] = system: filaggrin protein; assay: Amount of filaggrin protein (western blotting) in cultured human keratinocytes exposed to a gaseous phase (drying); assay type: cell-based; conditions: culture in the presence of 10% glycerol, FIG. 3
Protocol: as §1, §2, §3, §4
After each test substance was added to the aforesaid culture system and the cells were exposed to a gaseous phase for a predetermined period of time, protein was extracted from the cells. According to a conventional method, filaggrin protein or filaggrin protein precursor (profilaggrin) was determined by western blotting. An outline is given below. […] The quantitative analysis of bands was carried out with NIH Image (analytical program). […]

| SMILES | Recovery rate (%) ([1]; 0.15% by weight) | Relative expression level of filaggrin gene (%) Mean ([1]; 0.15% by weight) [%] | Recovery rate (%) ([1]; 0.30% by weight) | Relative expression level of filaggrin gene (%) Mean ([1]; 0.30% by weight) [%] | effect on reduction in filaggrin protein level induced by drying [2] |
| --- | --- | --- | --- | --- | --- |
| OCC(O)CO [glycerol] | 7.5 | 51 | 60.4 | 79 | inhibiting a reduction in filaggrin protein level |
| OC[C@@H](O)[C@H](O)[C@@H](O)CO [xylitol] | 5.7 | 50 | 37.7 | 67 |  |
